# In patent US20240287102A1, “NOVEL CRYSTALLINE FORMS OF [(1R)-2-(1-BENZOFURAN-3-YL)-1-{[(1S,2R,4R)-7-OXABICYCLO[2.2.1]HEPTAN-2-YL]FORMAMIDO}ETHYL]BORONIC ACID, ADDUCTS THEREOF, AND PROCESSES TO OBTAIN” (Merck Patent GmbH, priority 2021, published 2024):
# Where two headings read alike, the source gives them in different places.
# How the values were obtained:
# [1] = biological target: LMP7 subunit of the immunoproteasome (Homo sapiens, UniProt P20618+P28062); conditions: Singh et al, Br. J. Hematology 152(2): 155-163; cited from earlier work
# [2] = Water Vapour Sorption isotherm (25° C., DVS-Intrinsic); format: physicochemical; conditions: for water uptake levels: 25° C.
# Procedure: DSC scan of trimeric form A1 was acquired on a Mettler-Toledo DSC 1 with a heating rate of 5 K/min, using nitrogen purge gas at 50 mL/min. TGA scan of trimeric form A1 was acquired on a Mettler-Toledo TGA 851 with a heating rate of 5 K/min, using nitrogen purge gas at 50 mL/min. […] Eur. Criteria (section 5.11.). Water Vapour Sorption isotherm was acquired on a DVS-Intrinsic system from SMS. […] Dissolution level of trimeric form A1 in Simulated Gastric Fluid [SGF, pH 1.2] at 37° C. was determined to be approximately 2.4 mg/mL after 2 h (see example 12).
# DSC scan of hydrate form NF2 was acquired on a Mettler-Toledo DSC 1 with a heating rate of 5 K/min, using nitrogen purge gas at 50 mL/min. TGA scan of hydrate form NF2 was acquired on a Mettler-Toledo TGA 851 with a heating rate of 5 K/min, using nitrogen purge gas at 50 mL/min. […] Eur. Criteria (section 5.11.). Water Vapour Sorption isotherm was acquired on a DVS-Intrinsic system from SMS.
# In the DSC, a phase transition to trimeric form A1 occurred above 150° C., and the trimeric A1 form has a melting peak onset greater than 220° C. […] DSC scan of the anhydrous form NF9 was acquired on a Mettler-Toledo DSC 1 with a heating rate of 5 K/min, using nitrogen purge gas at 50 mL/min. TGA scan of anhydrous form NF9 was acquired on a Mettler-Toledo TGA 851 with a heating rate of 5 K/min, using nitrogen purge gas at 50 mL/min. […] Eur. Criteria (section 5.11.). […] Water Vapour Sorption isotherm was acquired on a DVS-Intrinsic system from SMS.
# This is followed by an exothermic event in the DSC, assigned to a phase transition to trimeric form A1. Finally, the melting of trimeric form A1 with melting peak onset at temperatures greater than 220° C. […] DSC scan of the hydrate of trimeric boronic acid adduct form NF7 was acquired on a Mettler-Toledo DSC 1 with a heating rate of 5 K/min, using nitrogen purge gas at 50 mL/min. TGA scan of the hydrate of trimeric boronic acid adduct form NF7 was acquired on a Mettler-Toledo TGA 851 with a heating rate of 5 K/min, using nitrogen purge gas at 50 mL/min. […] Eur. Criteria (section 5.11.). […]
# [3] = Thermodynamic solubility (24 h) at 37° C.; format: physicochemical; conditions: for solubility thermodynamic at 24 h: 37 °C, thermodynamic from solid
# Procedure: Approximately 10-20 mg of 1-(4-{[6-Amino-5-(4-phenoxy-phenyl)-pyrimidin-4-ylamino]-methyl}-4-fluoro-piperidin-1-yl)-propenone was weighed into a 4 mL glass vial. 1 mL of SGF medium (simulated gastric fluid, pH 1.2), FaSSIF medium (fasted state intestinal medium, pH 6.5), or USP Phosphate buffer pH 7.4 was added and the suspension was shaken for 24 h at 450 rpm at 37° C. After 1 hour, 6 hours and after 24 hours, the vials were checked for the presence of undissolved compound and the pH was measured. If necessary, the pH was adjusted after 1 hour and 6 hours. The solid liquid separation was carried out using 1 mL syringe and 0.2 μm syringe filter. Clear filtrate was analyzed by HPlC after suitable dilution to measure the amount of API dissolved.
hygroscopicity classification according to Ph. Eur. Criteria (section 5.11.) [2],water uptake levels ([2]; relative humidity range 0-80% rh) [% m/m],water uptake levels ([2]; relative humidity range 90-98% rh) [% m/m],"Thermodynamic solubility FaSSIF pH 6.5 ([3]; Fasted-State Simulated Intestinal Fluid pH 6.5, 37° C., 24 h) [mg/mL]","Thermodynamic solubility SGF pH 1.2 ([3]; Simulated Gastric Fluid pH 1.2, 37° C., 24 h) [mg/mL]","solubility thermodynamic at 24 h ([3]; fasted-state simulated intestinal fluid (FaSSIF), pH 6.5, fassif, Fasted-State Simulated Intestinal Fluid pH 6.5, 37° C., 24 h, read-out: Thermodynamic solubility FaSSIF pH 6.5) [µg/mL]",solubility in biorelevant media (in words) ([3]; listed as Hydrate form NF2),solubility in biorelevant media (in words) ([3]; listed as hydrate form NF2),"solubility thermodynamic at 24 h ([3]; simulated gastric fluid (SGF), pH 1.2, simulated gastric fluid, Simulated Gastric Fluid pH 1.2, 37° C., 24 h, read-out: Thermodynamic solubility SGF pH 1.2) [µg/mL]",SMILES,selectivity as inhibitor of the LMP7 subunit [1] [fold]
,,,,,,,,,CC1=C(C(=O)N[C@H](C)C(=O)N[C@@H](Cc2c[nH]c3ccccc23)C(=O)N[C@@H](Cc2ccccc2)C(=O)[C@@]2(C)CO2)Cc2ccccc21 [PR-924],100
slightly hygroscopic,≤ 1,≤ 5,0.7,0.7,~700,highly soluble in biorelevant media,good solubility in biorelevant media,~700,O=C(N[C@@H](Cc1coc2ccccc12)B(O)O)[C@@H]1C[C@H]2CC[C@@H]1O2 [Form NF2],
